In test [1] the target is T1, recombinant human B1 receptors (Homo sapiens, UniProt P46663).
T1 construct: host or cells: CHO (CHO-B1)
T1 sequence (P46663 1-353): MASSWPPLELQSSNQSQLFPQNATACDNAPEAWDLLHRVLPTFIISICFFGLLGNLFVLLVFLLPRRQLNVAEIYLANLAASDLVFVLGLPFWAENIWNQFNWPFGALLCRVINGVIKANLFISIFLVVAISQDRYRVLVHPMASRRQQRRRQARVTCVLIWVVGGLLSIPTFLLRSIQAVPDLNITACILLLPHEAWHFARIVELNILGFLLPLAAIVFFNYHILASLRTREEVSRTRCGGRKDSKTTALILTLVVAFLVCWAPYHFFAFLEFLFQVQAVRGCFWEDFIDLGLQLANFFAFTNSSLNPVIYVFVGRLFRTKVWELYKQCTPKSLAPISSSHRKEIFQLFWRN
Briefly: Functional assay: antagonist potency by cytosolic calcium measurement (plate reader fluorimeter) in CHO-B1 cells, agonist LysDABK. Particulars: CHO-B1 cells, inhibition of LysDABK (EC80)-evoked [Ca2+]i elevation; read-out: B1 func. Format: cell-based. In a few lines:
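IC50 is the concentration giving half-maximal inhibition of the LysDABK (EC80) calcium response, fitted from at least three experiments. CHO cells stably expressing human B1 were dye-loaded, exposed to compound for 20-25 min, then read by fluo-4 fluorescence (ΔF/F) at 37 °C.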

Test [2] concerns the target T2, human recombinant bradykinin B1 receptor (Homo sapiens, UniProt P46663).
T2 construct: host or cells: CHO cells, clone hB1-A5
T2 sequence (P46663 1-353): T1 sequence (P46663 1-353)
Briefly: Human recombinant bradykinin B1 receptor competitive radioligand binding. Particulars: hB1 expressed in CHO cells, [3H]-[Des-Arg10] Kallidin radioligand; read-out: B1 binding. In a few lines:
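Competition radioligand binding on CHO-expressed hB1 membranes, using [3,4-prolyl-3,4-^3H(N)]-[Des-Arg^10] Kallidin as tracer, 15 min at 25° C. Excess Lys-des-Arg^9-Bradykinin (10 μM) set nonspecific binding. Sigmoidal fits of at least seven concentrations gave IC50, converted to Ki via Cheng-Prusoff; KD from Scatchard.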

Bounds are passed on as bounds.

In the case of `Cc1nc(-c2c(Cl)c3ccccc3n2-c2ccc(CNC(=O)C3(NC(=O)c4cccc(F)c4)CC3)c(F)c2)no1` [Example 105, N-(1-{4-[3-Chloro-2-(5-methyl-[1,2,4]oxadiazol-3-yl)-indol-1-yl]-2-fluoro-benzylcarbamoyl}-cyclopropyl)-3-fluoro-benzamide], in test [1], the IC50 is < 20 nM. In test [2], the Ki was < 20 nM.
For the molecule `Cc1nc(-c2c(Cl)c3ccccc3n2-c2ccc(CNC(=O)C3(NC(=O)C4(C#N)CC4)CC3)cc2)no1` [Example 142, 1-Cyano-cyclopropanecarboxylic acid (1-{4-[3-chloro-2-(5-methyl-[1,2,4]oxadiazol-3-yl)-indol-1-yl]-benzylcarbamoyl}-cyclopropyl)-amide], in test [1], the IC50 was in the range of 20 to 100 nM. For the same molecule, in test [2], the Ki is < 20 nM.
Turning to `Cc1cc(C(=O)NC2(C(=O)NCc3ccc(-n4c(-c5noc(C)n5)c(Cl)c5ccccc54)cc3)CC2)no1` [Example 135, 5-Methyl-isoxazole-3-carboxylic acid (1-{4-[3-chloro-2-(5-methyl-[1,2,4]oxadiazol-3-yl)-indol-1-yl]-benzylcarbamoyl}-cyclopropyl)-amide], the IC50 in test [1] is 20 to 100 nM. In test [2], the Ki was < 20 nM.
`Cc1nnc(-c2c(Cl)c3ccccc3n2-c2ccc(CNC(=O)C3(NC(=O)c4cncnc4)CC3)cc2)o1` [Example 184, Pyrimidine-5-carboxylic acid (1-{4-[3-chloro-2-(5-methyl-[1,3,4]oxadiazol-2-yl)-indol-1-yl]-benzylcarbamoyl}-cyclopropyl)-amide]: in test [1], the IC50 is < 20 nM. The Ki in test [2] is < 20 nM.
In the case of `Cc1nc(-c2c(Cl)c3ccccc3n2-c2ccc(CNC(=O)C3(NC(=O)c4cccc(I)c4)CC3)cc2)no1` [Example 176, N-(1-{4-[3-Chloro-2-(5-methyl-[1,2,4]oxadiazol-3-yl)-indol-1-yl]-benzylcarbamoyl}-cyclopropyl)-3-iodo-benzamide], the IC50 in test [1] lay within 20 to 100 nM. Further, in test [2], the Ki was 20 to 100 nM.
For `COc1cc(C(=O)NC2(C(=O)NCc3ccc(-n4c(-c5nnn(C)n5)c(Cl)c5ccccc54)cc3)CC2)on1` [Example 2, 3-Methoxy-isoxazole-5-carboxylic acid (1-{4-[3-chloro-2-(2-methyl-2H-tetrazol-5-yl)-indol-1-yl]-benzylcarbamoyl}-cyclopropyl)-amide], in test [1], the IC50 is < 20 nM. Besides, in test [2], the Ki is < 20 nM.
For `Cc1nc(-c2c(Cl)c3ccccc3n2-c2ccc(CNC(=O)C3(NC(=O)C=Cc4ccco4)CC3)cc2)no1` [Example 171, 1-(3-Furan-2-yl-acryloylamino)-cyclopropanecarboxylic acid 4-[3-chloro-2-(5-methyl-[1,2,4]oxadiazol-3-yl)-indol-1-yl]-benzylamide], in test [1], the IC50 was 20 to 100 nM. Besides, in test [2], the Ki was < 20 nM.
In the same order, the values of `Cc1nc(-c2c(Cl)c3ccccc3n2-c2ccc(CNC(=O)C3(NC(=O)c4cc(C)n(C)n4)CC3)cc2)no1` [Example 148, 1,5-Dimethyl-1H-pyrazole-3-carboxylic acid (1-{4-[3-chloro-2-(5-methyl-[1,2,4]oxadiazol-3-yl)-indol-1-yl]-benzylcarbamoyl}-cyclopropyl)-amide] are 20 to 100 nM and < 20 nM.
In the same order, the values of `COc1cc(C(=O)NC2(C(=O)NCc3ccc(-n4c(-c5noc(C)n5)c(C)c5cc(F)ccc54)cc3)CC2)on1` [Example 200, 3-Methoxy-isoxazole-5-carboxylic acid (1-{4-[5-fluoro-3-methyl-2-(5-methyl-[1,2,4]oxadiazol-3-yl)-indol-1-yl]-benzylcarbamoyl}-cyclopropyl)-amide] are < 20 nM and < 20 nM.
Regarding `Cc1cccc(C(=O)NC2(C(=O)NCc3ccc(-n4c(-c5noc(C)n5)c(Cl)c5ccccc54)cc3)CC2)c1` [Example 179, N-(1-{4-[3-Chloro-2-(5-methyl-[1,2,4]oxadiazol-3-yl)-indol-1-yl]-benzylcarbamoyl}-cyclopropyl)-3-methyl-benzamide], the IC50 in test [1] is 20 to 100 nM. In test [2], the Ki is < 20 nM.
For the molecule `COc1ccc2c(c1)cc(C#N)n2-c1ccc(CNC(=O)C2(NC(=O)c3cc(OC)no3)CC2)cc1` [Example 48, 3-Methoxy-isoxazole-5-carboxylic acid {1-[4-(2-cyano-5-methoxy-indol-1-yl)-benzylcarbamoyl]-cyclopropyl}-amide], in test [1], the IC50 is < 20 nM. The Ki in test [2] is < 20 nM.
On to `Cc1cnc(C(=O)NC2(C(=O)NCc3ccc(-n4c(-c5noc(C)n5)c(Cl)c5ccccc54)cc3)CC2)cn1` [Example 161, 5-Methyl-pyrazine-2-carboxylic acid (1-{4-[3-chloro-2-(5-methyl-[1,2,4]oxadiazol-3-yl)-indol-1-yl]-benzylcarbamoyl}-cyclopropyl)-amide], for which the IC50 in test [1] lay in the range of 20 to 100 nM. Moreover, the Ki in test [2] was < 20 nM.
On to `COc1cc(C(=O)NC2(C(=O)NCc3ccc(-n4c(-c5ncc(C)o5)c(Cl)c5ccccc54)cc3)CC2)on1` [Example 38, 3-Methoxy-isoxazole-5-carboxylic acid (1-{4-[3-chloro-2-(5-methyl-oxazol-2-yl)-indol-1-yl]-benzylcarbamoyl}-cyclopropyl)-amide], for which the IC50 in test [1] lay within 20 to 100 nM. In addition, the Ki in test [2] was < 20 nM.
`Cc1nc(-c2c(Cl)c3ccccc3n2-c2ccc(CNC(=O)C3(NC(=O)CCC(C)C)CC3)cc2)no1` [Example 140, 1-(4-Methyl-pentanoylamino)-cyclopropanecarboxylic acid 4-[3-chloro-2-(5-methyl-[1,2,4]oxadiazol-3-yl)-indol-1-yl]-benzylamide]: the IC50 in test [1] was < 20 nM. Moreover, the Ki in test [2] is < 20 nM.
Take `Cc1nc(-c2c(Cl)c3cc(Cl)ccc3n2-c2ccc(CNC(=O)C3(NC(=O)C(F)(F)F)CC3)cc2)no1` [Example 65, 1-(2,2,2-Trifluoro-acetylamino)-cyclopropanecarboxylic acid 4-[3,5-dichloro-2-(5-methyl-[1,2,4]oxadiazo 1-3-yl)-indol-1-yl]-benzylamide]: the IC50 in test [1] was < 20 nM. Also, the Ki in test [2] is < 20 nM.
For the molecule `Cc1nc(-c2c(Cl)c3ccccc3n2-c2ccc(CNC(=O)C3(NC(=O)CC(F)(F)F)CC3)c(F)c2)no1` [Example 108, 1-(3,3,3-Trifluoro-propionylamino)-cyclopropanecarboxylic acid 4-[3-chloro-2-(5-methyl-[1,2,4]oxadiazol-3-yl)-indol-1-yl]-2-fluoro-benzylamide], in test [1], the IC50 is < 20 nM. The Ki in test [2] was < 20 nM.
For the molecule `COc1cc(C(=O)NC2(C(=O)NCc3ccc(-n4c(-c5noc(C)n5)c(Cl)c5cc(F)ccc54)cc3)CC2)on1` [Example 67, 3-Methoxy-isoxazole-5-carboxylic acid (1-{4-[3-chloro-5-fluoro-2-(5-methyl-[1,2,4]oxadiazol-3-yl)-indol-1-yl]-benzylcarbamoyl}-cyclopropyl)-amide], the IC50 in test [1] was < 20 nM. Also, the Ki in test [2] was < 20 nM.
As to `Cc1nnc(-c2c(Cl)c3ccccc3n2-c2ccc(CNC(=O)C3(NC(=O)c4cnc5ccccc5c4)CC3)cc2)o1` [Example 182, Quinoline-3-carboxylic acid (1-{4-[3-chloro-2-(5-methyl-[1,3,4]oxadiazol-2-yl)-indol-1-yl]-benzylcarbamoyl}-cyclopropyl)-amide], in test [1], the IC50 was < 20 nM. Further, in test [2], the Ki was < 20 nM.
As for `Cc1ncc(C(=O)NC2(C(=O)NCc3ccc(-n4c(-c5noc(C)n5)c(Cl)c5ccccc54)cc3)CC2)cn1` [Example 185, 2-Methyl-pyrimidine-5-carboxylic acid (1-{4-[3-chloro-2-(5-methyl-[1,2,4]oxadiazol-3-yl)-indol-1-yl]-benzylcarbamoyl}-cyclopropyl)-amide], the IC50 in test [1] was < 20 nM. Besides, the Ki in test [2] was < 20 nM.
Take `Cc1nc(-c2c(Cl)c3ccccc3n2-c2ccc(CNC(=O)C3(NC(=O)c4cccc(C(F)(F)F)c4)CC3)cc2)no1` [Example 177, N-(1-{4-[3-Chloro-2-(5-methyl-[1,2,4]oxadiazol-3-yl)-indol-1-yl]-benzylcarbamoyl}-cyclopropyl)-3-trifluoromethyl-benzamide]: in test [1], the IC50 was < 20 nM. The Ki in test [2] was in the range of 20 to 100 nM.
Turning to `Cc1nc(-c2c(Cl)c3ccccc3n2-c2ccc(CNC(=O)C3(NC(=O)C=Cc4ccoc4)CC3)cc2)no1` [Example 169, 1-(3-Furan-3-yl-acryloylamino)-cyclopropanecarboxylic acid 4-[3-chloro-2-(5-methyl-[1,2,4]oxadiazol-3-yl)-indol-1-yl]-benzylamide], the IC50 in test [1] was < 20 nM. Moreover, the Ki in test [2] is < 20 nM.
Regarding `Cc1nc(-c2c(Cl)c3ccccc3n2-c2ccc(CNC(=O)C3(NC(=O)c4cc(F)cc(C(F)(F)F)c4)CC3)cc2)no1` [Example 94, N-(1-{4-[3-Chloro-2-(5-methyl-[1,2,4]oxadiazol-3-yl)-indol-1-yl]-benzylcarbamoyl}-cyclopropyl)-3-fluoro-5-trifluoromethyl-benzamide], the IC50 in test [1] is < 20 nM. Moreover, the Ki in test [2] was < 20 nM.

Source of the values: patent publication US20130217702A1 (Richter Gedeon Nyrt., priority 2010, published 2013).
